Data on 18 molecules can be found in BindingDB's records for doi:10.1016/j.bmcl.2007.11.067 (Bristol-Myers Squibb, 2008).

SMILES strings stand for the structures. A value given as a limit tells only on which side of the number the result lay.

One assay is described as follows: Antagonist activity at CCR3 receptor in mouse eosinophil assessed as as inhibition of chemotaxis.
As for `C[C@@H](NC(=O)Nc1cccc(-c2nnnn2C)c1)[C@@H](O)CN1CCC[C@@H](Cc2ccc(F)cc2)C1` [1-{(1R,2S)-3-[(S)-3-(4-Fluoro-benzyl)-piperidin-1-yl]-2-hydroxy-1-methyl-propyl}-3-[3-(1-methyl-1H-tetrazol-5-yl)-phenyl]-urea], the IC50 (in general, the concentration needed to halve the response being measured) is 870 nM.

Another assay can be described thus: Antagonist activity at CCR3 receptor in cynomolgus monkey eosinophil assessed as as inhibition of chemotaxis.
On to `C[C@@H](NC(=O)Nc1cccc(-c2nnnn2C)c1)[C@@H](O)CN1CCC[C@@H](Cc2ccc(F)cc2)C1` [1-{(1R,2S)-3-[(S)-3-(4-Fluoro-benzyl)-piperidin-1-yl]-2-hydroxy-1-methyl-propyl}-3-[3-(1-methyl-1H-tetrazol-5-yl)-phenyl]-urea], for which the IC50 turned out to be 0.15 nM.

A short description of a further assay: Antagonist activity at human CCR3 receptor in human eosinophil assessed as inhibition of eotaxin-induced chemotaxis.
On to `CC[C@H](CCN1CCC[C@@H](Cc2ccc(F)cc2)C1)NC(=O)Nc1cc(-c2nnnn2C)cc(C(C)(C)O)c1`, for which the IC50 was determined as 0.1 nM. Same read-out and setting: with `O=C(NCCCN1CCC[C@@H](Cc2ccc(F)cc2)C1)Nc1cc(-n2cccn2)cc(-n2cccn2)c1` the figure was 5 nM; with `CCC[C@H](CCN1CCC[C@@H](Cc2ccc(F)cc2)C1)NC(=O)Nc1cc(-c2nnnn2C)cc(C(C)(C)O)c1`, 0.011 nM.

For the molecule `C[C@H](CCN1CCC[C@@H](Cc2ccc(F)cc2)C1)NC(=O)Nc1cccc(-c2nnnn2C)c1`, the IC50 is 1.1 nM.

Take `C[C@H](CC(=O)N1CCC[C@@H](Cc2ccc(F)cc2)C1)NC(=O)Nc1cccc(-c2nnnn2C)c1`: the IC50 stood at 0.2 nM. Regarding `CC(C)c1cc(NC(=O)N[C@H](C)CCN2CCC[C@@H](Cc3ccc(F)cc3)C2)cc(-c2nnnn2C)c1`, the IC50 was 0.021 nM.

Consider `Cn1nnnc1-c1cccc(NC(=O)NCCCN2CCC[C@@H](Cc3ccc(F)cc3)C2)c1` [1-{3-[(S)-3-(4-Fluoro-benzyl)-piperidin-1-yl]-propyl}-3-[3-(1-methyl-1H-tetrazol-5-yl)-phenyl]-urea], for which the IC50 is 3.2 nM. As to `CC(=O)c1cc(NC(=O)NCCCN2CCC[C@@H](Cc3ccc(F)cc3)C2)cc(C(C)=O)c1` [(S)-1-(3-(3-(4-fluorobenzyl)piperidin-1-yl)propyl)-3-(3,5-diacetylphenyl)urea], the IC50 was 3 nM. In the case of `CC(=O)c1cc(NC(=O)N[C@@H](C)CCN2CCC[C@@H](Cc3ccc(F)cc3)C2)cc(C(C)=O)c1`, the IC50 turned out to be 60 nM. Still for that read-out and setting: the figure for `CC(=O)c1cc(NC(=O)N[C@H](C)CCN2CCC[C@@H](Cc3ccc(F)cc3)C2)cc(C(C)=O)c1` is 0.2 nM; for `CC(=O)c1cc(NC(=O)N[C@H](C)CCN2CCC[C@@H](Cc3ccc(F)cc3)C2)cc(-c2nnnn2C)c1` it is 0.02 nM. In the case of `C[C@@H](CCN1CCC[C@@H](Cc2ccc(F)cc2)C1)NC(=O)Nc1cccc(-c2nnnn2C)c1`, the IC50 was greater than 1 nM. On the same count and under the same terms, the figure for `CC(=O)c1cccc(NC(=O)NCCCN2CCC[C@@H](Cc3ccc(F)cc3)C2)c1` [1-(3-Acetyl-phenyl)-3-{3-[(S)-3-(4-fluoro-benzyl)-piperidin-1-yl]-propyl}-urea] is 25 nM; for `CC(C)c1cc(NC(=O)NCCCN2CCC[C@@H](Cc3ccc(F)cc3)C2)cc(-c2nnnn2C)c1` it is 0.3 nM; for `C[C@H](CCN1CCC[C@@H](Cc2ccc(F)cc2)C1)NC(=O)Nc1cc(-n2cccn2)cc(-n2cccn2)c1` it is 0.1 nM. As for `C[C@@H](NC(=O)Nc1cccc(-c2nnnn2C)c1)[C@@H](O)CN1CCC[C@@H](Cc2ccc(F)cc2)C1` [1-{(1R,2S)-3-[(S)-3-(4-Fluoro-benzyl)-piperidin-1-yl]-2-hydroxy-1-methyl-propyl}-3-[3-(1-methyl-1H-tetrazol-5-yl)-phenyl]-urea], the IC50 worked out at 0.04 nM. On the same count and under the same terms, the figure for `CCc1cc(NC(=O)N[C@H](C)CCN2CCC[C@@H](Cc3ccc(F)cc3)C2)cc(-c2nnnn2C)c1` is 0.02 nM; for `Cc1cc(NC(=O)NCCCN2CCC[C@@H](Cc3ccc(F)cc3)C2)cc(-c2nnnn2C)c1` [1-{3-[(S)-3-(4-Fluoro-benzyl)-piperidin-1-yl]-propyl}-3-[3-methyl-5-(1-methyl-1H-tetrazol-5-yl)-phenyl]-urea] it is 1 nM.
